Results from patent US12090155B2, “Methods” (INTRA-CELLULAR THERAPIES, INC., priority 2019, dated 2024).
Entries after “also recorded” stand apart in the source; their conditions may differ.

How the values were obtained:
[1] = test system: patients with Bipolar I or Bipolar II disorder experiencing a major depressive episode; experiment: Phase 3 placebo-controlled clinical trial, efficacy (MADRS, CGI-BP-S); type: in vivo, human
Experimental: (§1) A multi-center, multi-national, randomized, double-blind, fixed-dose, placebo-controlled clinical trial is conducted substantially in accordance with the following protocol.
(§2) Patients are recruited according to the following criteria: • Major Inclusion Criteria: Male or female subjects of any race, ages 18-75 inclusive, with a clinical diagnosis of Bipolar I or Bipolar II disorder, experiencing a current major depressive episode, and able to provide written informed consent. • Major Exclusion Criteria: Any female subject who is pregnant or breast-feeding, and any subject judged to be medically inappropriate for study participation.
(§3) In the placebo arm, placebo is administered once daily every evening for 6 weeks. […] The study is quadruple-masked (i.e., to participant, care provider, investigator, and outcomes assessor).
(§4) The total study duration is about 10 weeks, including up to 2 weeks screening period (washout of prohibited medications), a 6-week double-blind treatment period, and 2-week safety follow-up period.
The primary outcome measure is the Montgomery-Åsberg Depression Rating Scale (MADRS) [Time Frame: Day 43]. Secondary outcome measures are the Clinical Global Impression Scale, Bipolar version (CGI-BP) [Time Frame: Day 43] and the Quality of Life Enjoyment and Satisfaction Questionnaire-Short Form (Q-LES-Q-SF) [Time Frame: Day 43].

[2] = test system: patients with Bipolar I or Bipolar II disorder experiencing a major depressive episode; experiment: Phase 3 placebo-controlled clinical trial, safety and tolerability; type: in vivo, human
Experimental: as §1, §2, §3, §4
Incidence of Adverse Events (AEs) • b. Young Mania Rating Scale (YMRS) • c. Columbia Suicide Severity Rating Scale (C-SSRS) • d. Abnormal Involuntary Movement Scale (AIMS) • e. Barnes Akathisia Rating Scale (BARS) • f. Simpson Angus Scale (SAS) • g. Clinical laboratory evaluations • h. Electrocardiograms (ECGs) • i. Vital sign measurements • j. Physical examination and neurological findings

[3] = 42 mg once daily orally for 6 weeks, Day 43, ITT
[4] = 42 mg once daily orally for 6 weeks, Day 43, listed as lumateperone
[5] = 42 mg once daily orally for 6 weeks, change from baseline to Day 43, ITT
[6] = 42 mg once daily, week 6, ITT population

Compound: CN1CCN2c3c(cccc31)[C@@H]1CN(CCCC(=O)c3ccc(F)cc3)CC[C@@H]12 [Lumateperone, 4-((6bR,10aS)-3-methyl-2,3,6b,9,10,10a-hexahydro-1H-pyrido[3′,4′: 4,5]pyrrolo[1,2,3-de]quinoxalin-8(7H)-yl)-1-(4-fluorophenyl)-1-butanone]
- MADRS total score versus placebo, subgroup of patients with Bipolar II disorder ([1]; 42 mg daily, subgroup analysis, Bipolar II disorder): statistically significant superior versus placebo; also recorded: statistically significant superior to placebo
- Responder rates and remission rates versus placebo ([1]; 42 mg once daily): statistically significant benefits
- Time of first statistically significant separation from placebo on MADRS total score ([1]; 42 mg once daily): as early as week 1
- MADRS total score, Effect Size, comparison to placebo at Day 43 ([1]; 42 mg once daily orally for 6 weeks, Day 43): −0.56
- CGI-BP-S total score, LSMD (SE), comparison to placebo at Day 43 [1, 3]: −0.9 (0.22)
- MADRS total score, LSMD (SE), comparison to placebo at Day 43 [1, 3]: -4.6
- CGI-BP-S total score, Effect Size, comparison to placebo at Day 43 [1, 4]: 0.46
- MADRS total score, Effect Size, comparison to placebo at Day 43 [1, 4]: 0.56
- CGI-BP-S total score, LS Mean (SE) Change at Day 43 [1, 5]: −3.5 (0.17)
- MADRS total score, LS Mean (SE) Change at Day 43 [1, 5]: −16.7 (0.69)
- CGI-S Depression Score, effect size versus placebo ([1]; 42 mg once daily, 6 weeks): 0.5
- MADRS total score, LS mean difference versus placebo [1, 6]: 4.6 points
- MADRS total score, least squares (LS) mean reduction from baseline [1, 6]: 16.7 points
- Emergence of mania as measured by the Young Mania Rating Scale (YMRS) and clinical global impression of severity for mania ([2]; 42 mg daily): did not exhibit emergence of mania
- Extrapyramidal symptoms, akathisia, restlessness or other motor side effects (adverse event reports) ([2]; 42 mg daily): does not increase akathisia, restlessness, or other movement disorders; also recorded: no adverse event reports of extrapyramidal symptoms
- Metabolic effects (hyperglycemia, dyslipidemia, weight gain) ([2]; 42 mg daily): does not have significant metabolic side effects; also recorded: did not appear to have any noticeable metabolic effects
- Overall safety profile / tolerability ([2]; 42 mg daily): favorable safety profile in this trial, comparable to placebo; also recorded: generally safe and well tolerated
- Rate of the most commonly reported adverse events (headache, somnolence and nausea), higher than placebo ([2]; 42 mg daily): greater than 5%
- Rates of akathisia and extrapyramidal symptoms ([2]; 42 mg daily): less than 1%
- Suicidal ideation (adverse event reports) ([2]; 42 mg daily): does not increase suicidal ideation; also recorded: no adverse event reports of suicidal ideation
- Number of patients with drug-related TEAE ([2]; 42 mg, N = 188): 78 (41.5) n (%)
- Number of patients with drug-related treatment-emergent SAE ([2]; 42 mg, N = 188): 0 n (%)
- Number of patients with treatment-emergent SAE ([2]; 42 mg, N = 188): 1 (0.5) n (%)
- Number of patients with treatment-emergent death ([2]; 42 mg, N = 188): 0 n (%)
- Subjects discontinued study due to TEAE ([2]; 42 mg, N = 188): 11 (5.9) n (%)
- Subjects discontinued study due to drug-related TEAE ([2]; 42 mg, N = 188): 9 (4.8) n (%)
- Subjects discontinued study due to drug-related treatment-emergent SAE ([2]; 42 mg, N = 188): 0 n (%)
- Subjects discontinued study due to treatment-emergent SAE ([2]; 42 mg, N = 188): 1 (0.5) n (%)
- Subjects who died ([2]; 42 mg, N = 188): 0 n (%)
- Number of patients with one or more TEAE ([2]; 42 mg, N = 188, safety population): 103 (54.8) n (%)
